Results: patent US10092530B2, “Method for inhibiting melanogenesis and promoting collagen production and wound healing” (TCI Co., Ltd, priority 2015, dated 2018)

Assays:
Type in all cases: cell-based
human dermal fibroblasts [1] = assay: Wound repair/closure of an incised wound area in a culture of human dermal fibroblasts; details: for percentage of wound repair/closure relative to the CTL group: 18 hours
Experimental: (§1) Human dermal fibroblasts (CCD-966SK cells, former ATCC CRL-1881), a type of adherent skin cells, were cultured in minimum essential medium supplemented with 10% (v/v) fetal bovine serum (FBS), 0.37% (w/v) sodium bicarbonate, 0.1 mM non-essential amino acid solution (NEAA), 1 mM sodium pyruvate, 0.03% (w/v) […], 100 units/ml penicillin and 100 μg/ml streptomycin at 37° C. under humidified atmosphere (relative humidity of 80%) containing 5% CO2. During the culture, the medium was renewed every two days. When the cultured cells reached confluence and formed a monolayer, which was examined by an inverted microscope, a subculture was carried out.
Due to the importance of wound healing, the inventors of the present application studied the promoting effect of the compound of formula (I) on wound healing of skin in EXAMPLE 4. The following four groups were compared in this example: • (1) Control group (CTL group): creating an incised wound area in a culture of human dermal fibroblasts and then incubating and examining the culture for 18 hours; • (2) One dose-18 hours group (1X-18 group): creating an incised wound area in a culture of human dermal fibroblasts and adding one dose of the compound of the present invention to the culture; and then examining changes in the wound area of human dermal fibroblasts after an incubation of 18 hours, wherein the term “one dose” refers to 8.75 ng/mL of the compound of formula (I) in DMSO; • (3) Double dose-18 hours group (2X-18 group): creating an incised wound area in a culture of human dermal fibroblasts and adding one dose of the compound of the present invention to the culture; and then examining changes in the wound area of human dermal fibroblasts after an incubation of 18 hours, wherein the term “double dose” refers to 17.5 ng/mL of the compound of formula (I); and • (4) Fourfold dose-18 hours group (4X-18 group): creating an incised wound area in a culture of human dermal fibroblasts and adding one dose of the compound of the present invention to the culture; and then examining changes in the wound area of human dermal fibroblasts after an incubation of 18 hours, wherein the term “fourfold dose” refers to 35 ng/mL of the compound of formula (I).
According to FIG. 8, a constant number of fibrocytes (about 1-2×10^5 cells) were produced in each of the CTL, 1X-18, 2X-18, and 4X-18 groups to repair and close the wound at 18 hours after wounding.
In addition, a percentage of wound repair/closure in the wound area of human dermal fibroblasts was determined for the above four groups by analyzing the surface area change of the wound area in FIG. 8 using the software ImageJ. […]

MITF gene expression = MITF gene expression by RT-PCR in human dermal fibroblasts; details: 2X-48 group: 17.5 ng/mL, 48 hours
Experimental: as §1
Therefore, the inventors of the present application studied the inhibitory effect of the compound of formula (I) on MITF gene expression in EXAMPLE 3. […]

MMP-9 gene expression = MMP-9 gene expression by RT-PCR in human dermal fibroblasts; details: 1X-24 group: 8.75 ng/mL, 24 hours
Experimental: as §1
Therefore, the inventors of the present application studied the inhibitory effect of the compound of formula (I) on MMP-9 gene expression in EXAMPLE 2. […]

[2] = tested on: mouse melanoma cell line B16F10; assay: Melanin quantification assay in mouse melanoma cell line B16F10; details: for decreased melanin content compared with the CTL group: 48 hours, B16F10
Experimental: Therefore, the inventors of the present application studied the inhibitory effect of the compound of formula (I) on MITF gene expression in EXAMPLE 3. The following five groups were compared in this example: • (1) Control group (CTL group): incubating a culture of human dermal fibroblasts for a predetermined time; • (2) One dose-24 hours group (1X-24 group): adding one dose of the compound of the present invention to a culture of human dermal fibroblasts and then examining the culture after an incubation of 24 hours, wherein the term “one dose” refers to 8.75 ng/mL of the compound of formula (I) in DMSO; • (3) One dose-48 hours group (1X-48 group): adding one dose of the compound of the present invention to a culture of human dermal fibroblasts and then examining the culture after an incubation of 48 hours; • (4) Double dose-24 hours group (2X-24 group): adding a double dose of the compound of the present invention to a culture of human dermal fibroblasts and then examining the culture after an incubation of 24 hours, wherein the term “double dose” refers to 17.5 ng/mL of the compound of formula (I); and • (5) Double dose-48 hours group (2X-48 group): adding a double dose of the compound of the present invention to a culture of human dermal fibroblasts and then examining the culture after an incubation of 48 hours.
In addition, a melanin quantification assay was performed to examine the change of melanin content in mouse melanoma cell line B16F10 (ATCC CRL-6475) upon addition of the compound of the present invention. The treatment of the cells was the same as described above. […] Thus, it is concluded that the compound at a concentration between 8 ng/ml and 18 ng/ml causes a decrease of at least 20% in melanin formation in mouse melanoma cells.

human dermal fibroblasts [3] = assay: Collagen secretion assay (Sircol) in human dermal fibroblasts; details: for increase in collagen secretion compared with the CTL group: 24 hours

C=C1CC[C@@H](C)C2C[C@@H](O)[C@@H](C(C)C(=O)O)CC12 (stereo partly drawn) [compound of formula (I)]
degree of repair/closure in the wound area compared with the CTL group (micrographs) (human dermal fibroblasts [1]; 1X-18, 2X-18 and 4X-18 groups (8.75, 17.5, 35 ng/mL), 18 hours after wounding): significantly higher degree of repair/closure | percentage of wound repair/closure relative to the CTL group (human dermal fibroblasts [1]; 1X-18 group: 8.75 ng/mL): 1.21 fold | percentage of wound repair/closure relative to the CTL group (human dermal fibroblasts [1]; 2X-18 group: 17.5 ng/mL): 1.4 fold | percentage of wound repair/closure relative to the CTL group (human dermal fibroblasts [1]; 4X-18 group: 35 ng/mL): 1.5 fold | inhibition of MITF gene expression compared with the CTL group (MITF gene expression): about 50% | inhibition of MMP-9 gene expression compared with the CTL group (MMP-9 gene expression): about 80% | decreased melanin content compared with the CTL group ([2]; 1X-48 group: 8.75 ng/mL): 20% | decreased melanin content compared with the CTL group ([2]; 2X-48 group: 17.5 ng/mL): 40% | decrease in melanin formation ([2]; concentration between 8 ng/ml and 18 ng/ml, mouse melanoma cells): at least 20% | increase in collagen secretion compared with the CTL group (human dermal fibroblasts [3]; 1X-24 group: 8.75 ng/mL): 20% | increase in collagen secretion compared with the CTL group (human dermal fibroblasts [3]; 2X-24 group: 17.5 ng/mL): 30% | increase in collagen secretion (human dermal fibroblasts [3]; concentration between 8 ng/ml and 18 ng/ml): at least 20%
